In US20230358677A1, “Reversible Excited-State Photoacids and Photobases as Dynamic Fluorescence Sensors of Protonic Species” (California Institute of Technology, priority 2022, published 2023):
Blank lines part the entries; values can stand above or below the compound they belong to.

Key:
[1] = Acid-base titrations of NS—NH2 in the presence of proton-accepting quenchers (modified Stern-Volmer, Equation 7); conditions: for KSV,OH−: Equation 7; for pKa,BH+ (Equation 7), value after the slash: equals titration-curve values of b153; for k+q,corr: corrected rate constant, ESPT from NS—NH2* to the proton acceptor; for k+q: direct excited-state proton transfer from NS—NH2* to the proton acceptor; for KSV,quencher (Equation 7) / KSV,quencher (traditional linearized Stern-Volmer): quenching of NS—NH2*
Text: Assuming that photoluminescence quenching occurs by ESPT from NS—NH2* to OH^−(aq), the data support that when aOH− is small (i.e. at pH less than about 12), ESPT can be quite slow compared to the excited-state lifetime of NS—NH2*, due to mass action (FIG. 2B). The non-unity quantum yield for ESPT in weakly alkaline aqueous solutions afforded us an opportunity to evaluate a series of aqueous proton-accepting quenchers (glycine (Gly(aq)), proline (Pro(aq)), and trifluoroethanol (TFE(aq))) for their ability to undergo ESPT with NS—NH2*. In order to clearly observe ESPT to a species other than OH^−(aq), added proton-accepting quenchers had to be more basic (ΔG^o<0), or slightly more acidic (ΔG^o>0), than NS—NH2*, and less basic than OH^−(aq). […] As pH values approach and pass the pKa of the proton-accepting quencher, the rate of ESPT slows from a decrease in the concentration of proton-accepting quencher due to its protonation. This is supported by observations from analogous experiments performed using different concentrations of quencher. Best fits of measured photoluminescence spectroscopy data to a modified Stern-Volmer equation for a two-quencher system, including both OH^−(aq) and proton-accepting quencher, provided bimolecular rate constants for deprotonation of the photoacid by each quencher,
where KSV,OH−=K*^−1b and KSV,quencher=k+q,quencherτo,PAH* are the dynamic quenching constants for excited-state proton transfer to OH^−(aq) and proton-accepting quencher, respectively, k+q,quencher is the bimolecular rate constant (M^−1 s^−1) for ESPT quenching by the proton-accepting quencher, and the sum of the activities of B and BH^+ is approximated as the total concentration of the proton-accepting quencher. While the pKa of the proton-accepting quencher is an adjustable parameter during best fitting, extracted pKa values are close to pKa values obtained from the acid-base titration curves of the proton-accepting quenchers. Changing the proton-accepting quencher to one with a smaller pKa value results in a slower non-diffusion-limited rate constant for ESPT with NS—NH2*. The observation of ESPT directly from NS—NH2* to each of two different amino acids, Gly and Pro, is notable, and may have important implications for biological systems where direct protonation of proteins can induce cellular responses.
Table 2 lists driving-force-dependent rate constants for direct excited-state proton transfer from NS—NH2* to various proton-accepting quenchers.
(§1) Several embodiments use the steady-state ultraviolet-visible electronic absorption and photoluminescence spectroscopy for characterization. Equal amounts of aromatic amine photoacids are portioned into five separate 100 mL volumetric flasks. For the non-proton-accepting quencher experiments, the five flasks are filled to the volumetric marker with aqueous solutions of 1 M HCl, 1 M KOH, 2 M KOH, 3 M KOH, and 4 M KOH. The aqueous 1 M KOH solution is titrated with the aqueous 1 M HCl solution to reach the desired pH values from 14 to 6, and the H^+ activities are measured using a pH meter (pH/Ion 510). […] Electronic absorption spectra and photoluminescence spectra are acquired using absorbance and fluorescence spectrometer(s), using a square-bottom quartz cuvette (1 cm path length) at room temperature. Electronic absorption spectra are baselined on a spectrum of deionized water and were corrected for scattering of light. Photoluminescence spectra are recorded by exciting with 310 nm light, slit widths for the excitation and emission monochromators were set to 5 nm, and the PMT detector voltage is set to 600 V. Photoluminescence spectra are corrected for changes in solution refractive index, inner filter effects and the wavelength-dependent correction factor of the fluorimeter.

[2] = Acid-base titration of aqueous photoacid with absorption and steady-state photoluminescence detection (Henderson-Hasselbalch / Stern-Volmer fits, OH− as quencher)
Text: FIGS. 2A through 2C illustrate acid-base titration of an aqueous solution of NS—NH2 photoacid with absorption and photoluminescence detection in accordance with an embodiment.
where aOH− is the activity of OH^−(aq), K*b pseudo is an erroneous observed equilibrium constant for base dissociation and KSV,OH− is the Stern-Volmer quenching constant, which is strictly dimensionless but reported here in units of M^−1 to be consistent with its typical usage. Unlike the Henderson-Hasselbalch equation, the Stern-Volmer equation is also applicable to non-equilibrium processes.
and KSV,OH−=k+q,OH−τo,PAH*, where τ is the excited-state lifetime (s) of NS—NH2* in the absence (τo,PAH*) or presence (τPAH*) of OH^− quencher and k+q,OH− is the bimolecular rate constant (M^−1 s^−1) for quenching of NS—NH2* by OH^− (forward direction of Reaction 1 with B=OH^−(aq)).
as §1, with “fluorimeter. For experiments that use non-OH^− proton-accepting quenchers, equal amounts of the quencher are added to the dry volumetric flask intended to form the acidic and basic aqueous photoacid solutions, to prevent changes in total quencher concentration during the titration, and titrations are performed similarly to those in the absence of added proton-accepting quenchers. Although the total quencher concentration is kept constant throughout the titration, the activity of the deprotonated quencher species varied as a function of solution pH according to Equation 3. Ionic strength is matched at the most alkaline pH values; however, it is experimentally difficult to maintain the same ionic strength throughout the titration. Normalized photoluminescence intensities as a function of solution pH are obtained by dividing the corrected photoluminescence intensities at the wavelength of maximum photoluminescence to the maximum corrected photoluminescence intensity at the same wavelength.” for “fluorimeter.”

[3] = Marcus-Cohen bond-energy-bond-order (BEBO) analysis of quenching rate constants; assay type: physicochemical
Text: Several embodiments provide accurate quantification of excited-state Brønsted-Lowry acidity and reorganization energy of weak photoacids using Marcus-Cohen bond-energy-bond-order (BEBO) theory. Data for this series of proton-accepting quenchers analyze the dependence of driving force on ESPT quenching rate constants and assess the validity of Marcus normal region behavior, as has been performed numerous times for excited-state electron transfer and proton-coupled electron transfer. Like excited-state electron-transfer quenching in polar solvents, ESPT is proposed to proceed through formation of an excited-state encounter complex between reactants prior to proton transfer, but unique to ESPT is dissociation of an excited-state encounter complex between products after proton transfer. […]
where ΔGEC,R^o, ΔGPT^oand −ΔGEC,P^o are the standard Gibbs free energy differences for the individual reaction steps in the excited-state proton-transfer reaction sequence. Kinetic data (Equation 8) and thermodynamic data (Equation 11) are analyzed using Marcus-Cohen bond-energy-bond-order (BEBO) theory, which is based on transition-state theory and results in the following relationship between ΔGPT^‡ and ΔGPT^o, […]

[4] = Stern-Volmer analysis of quenching of HPhenDS by proton acceptors; assay type: physicochemical; conditions: quenching of aqueous HPhenDS, constant ionic strength
Experimental: ESPT availability and ESPT to water curves are calculated from steady-state absorption and photoluminescence data for 15 μM HPhenDS across the pH window indicated at constant ionic strength (except for pH values below 0). Concentrations of all buffers were simulated to be 1 M total salt added. Ability to sense is predicted by estimating total concentration at a given pH value based on the pKa value of the buffer and fit to a Henderson-Hasselbalch-type equation. The resultant concentration is then multiplied by the ESPT availability of HPhenDS at each pH value.
FIGS. 21A and 21B illustrate Stern-Volmer analysis for quenching constant Ksv in accordance with an embodiment.

[5] = 1 M aqueous solution titrated with 4 M KOH
[6] = proton acceptor, aqueous; cited from earlier work
[7] = cited from earlier work
[8] = Stability of dye fluorescence near an operating gas diffusion electrode
[9] = cited from earlier work; remark: listed apart in the source
[10] = 1 M total trifluoroethanol present
[11] = conjugate acid of proton acceptor

pKa ([2]; aqueous solution, ground-state pKa, aromatic amine, aqueous): > 17
ΔGo,PT‡ ([3]; Gibbs free energy of activation of proton-transfer step at ΔGPT°=0): 0.080±0.005 eV
“true” pK*a ([3]; Marcus-Cohen BEBO analysis): 11.7±0.1
Compound: Nc1cccc2c(S(=O)(=O)[O-])cccc12.[Na+] [NS—NH2, 5-aminonaphthalene-1-sulfonic acid sodium salt]
bimolecular rate constant, deprotonation of NS—NH2* by OH−(aq) ([1]; 0.17 M total phosphate present): (163±8)×10^8 M^−1 s^−1
bimolecular rate constant, deprotonation of NS—NH2* by OH−(aq) ([1]; 1 M total glycine present): (43±1)×10^8 M^−1 s^−1
bimolecular rate constant, deprotonation of NS—NH2* by OH−(aq) ([1]; 1 M total proline present): (47±2)×10^8 M^−1 s^−1
bimolecular rate constant, deprotonation of NS—NH2* by OH−(aq) [1, 10]: (60±30)×10^8 M^−1 s^−1
bimolecular rate constant, deprotonation of NS—NH2* by OH−(aq) ([1]; 2 M total glycine present): (38±2)×10^8 M^−1 s^−1
KSV,OH− ([1]; 0.17 M total phosphate present): 37 ± 2 M⁻¹
KSV,OH− ([1]; 1 M total glycine present): 20 ± 1 M⁻¹
KSV,OH− ([1]; 1 M total proline present): 22 ± 1 M⁻¹
KSV,OH− [1, 10]: 30 ± 10 M⁻¹
KSV,OH− ([1]; 2 M total glycine present): 8.6 ± 0.4 M⁻¹
KSV,τ,OH− (linearized Stern-Volmer) ([2]; lifetime data, linearized Stern-Volmer fit, OH−(aq) quencher): about 55±1 M^−1
KSV,τ,OH− ([2]; lifetime data, non-linear Stern-Volmer fit, OH−(aq) quencher): about 54±6 M^−1
bimolecular rate constant k+q,τ,OH− ([2]; lifetime data, forward direction of Reaction 1 with B=OH−(aq)): about (12±1)×10^9 M^−1 s^−1
KSV,ss,OH− ([2]; steady-state photoluminescence, non-linear Stern-Volmer fit, OH−(aq) quencher): about 47±1 M^−1
KSV,ss,OH− (linearized Stern-Volmer) ([2]; steady-state photoluminescence, traditional linearized Stern-Volmer fit, OH−(aq) quencher): about 46±1 M^−1

Compound: O=C(O)O [Bicarbonate]
KSV [4]: about 0.6051 M^−1

Compound: NCC(=O)O [Glycine]
bimolecular rate constant, deprotonation of NS—NH2* by the quencher ([1]; 1 M total quencher): (0.39±0.02)×10^8 M^−1 s^−1
bimolecular rate constant, deprotonation of NS—NH2* by the quencher ([1]; 2 M total glycine): (0.90±0.04)×10^8 M^−1 s^−1
pKa,BH+ (Equation 7), value before the slash [1, 11]: 9.7
pKa,BH+ (Equation 7), value after the slash [1, 11]: 9.9
k+q,corr [1]: 1.44 ± 0.07 10^8 M^−1 s^−1
k+q [1]: 0.39 ± 0.02 10^8 M^−1 s^−1
KSV,quencher (Equation 7) ([1]; 1 M total quencher): 0.18 ± 0.01 M⁻¹
KSV,quencher (traditional linearized Stern-Volmer) ([1]; 1 M total quencher): 0.19 ± 0.01 M⁻¹
KSV,quencher (Equation 7) ([1]; 2 M total glycine): 0.20 ± 0.01 M⁻¹
pKa from acid-base titration curve [5]: 9.9
Diffusion Coefficient [6]: 10.60 10^−6 cm^2/s

Compound: CC(=O)O [Acetate]
KSV [4]: about 0.1548 M^−1

Compound: Hydroxide
pKa,BH+ (Equation 7), value before the slash [1, 11]: 14/—
k+q,corr [1]: 100 ± 3 10^8 M^−1 s^−1
k+q [1]: 100 ± 3 10^8 M^−1 s^−1
Diffusion Coefficient [6]: 52.70 10^−6 cm^2/s

Compound: Oc1ccc2ccc3cccc4ccc1c2c34 [1-hydroxypyrene]
ground state pKa [7]: about 9

Compound: O=C([O-])[O-].[Na+].[Na+] [Carbonate]
KSV [4]: about 1.02 M^−1

Compound: O=S(=O)(O)c1cc(S(=O)(=O)O)c2ccc3c(O)cc(O)c4ccc1c2c43 [DHPDS, 6,8-dihydroxy-1,3-pyrenedisulfonic acid]
fluorescent signal during GDE operation ([8]; cathodic current densities of 100 mA/cm^2 in magnitude, or larger): Some loss of fluorescent signal
photoluminescence intensity during GDE operation ([8]; current density between 0 and −20 mA/cm^2): no significant decrease in photoluminescence intensity
pK*a ([7]; strong photoacid): ≈ 0

Compound: O=CO [Formate]
KSV [4]: about 0.4623 M^−1

Compound: Trifluoroethanol
bimolecular rate constant, deprotonation of NS—NH2* by the quencher ([1]; 1 M total quencher): (11±2)×10^8 M^−1 s^−1
pKa,BH+ (Equation 7), value before the slash [1, 11]: 12.4
pKa,BH+ (Equation 7), value after the slash [1, 11]: 12.6
k+q,corr [1]: 58.7 ± 11.5 10^8 M^−1 s^−1
k+q [1]: 11.2 ± 2.2 10^8 M^−1 s^−1
KSV,quencher (Equation 7) ([1]; 1 M total quencher): 5 ± 1 M⁻¹
KSV,quencher (traditional linearized Stern-Volmer) ([1]; 1 M total quencher): 6.2 ± 0.1 M⁻¹
pKa from acid-base titration curve [5]: 12.6
pKa, literature value [9]: 12.4
Diffusion Coefficient [6]: 6.00 10^−6 cm^2/s

pKa,BH+ (Equation 7), value before the slash [1]: 11.4/—
Compound: Phosphate
bimolecular rate constant, deprotonation of NS—NH2* by the quencher ([1]; 0.17 M total phosphate): (11±2)×10^8 M^−1 s^−1
k+q,corr [1]: 22.6 ± 3.8 10^8 M^−1 s^−1
k+q [1]: 5.4 ± 0.9 10^8 M^−1 s^−1
KSV,quencher (Equation 7) ([1]; 0.17 M total phosphate): 2.2 ± 0.3 M⁻¹
KSV,quencher (traditional linearized Stern-Volmer) ([1]; 0.17 M total phosphate): 3.4 ± 0.1 M⁻¹
Diffusion Coefficient [6]: 8.79 10^−6 cm^2/s
